Assay results as given in patent US10933053B2, “Treating infections with ceftolozane/tazobactam in subjects having impaired renal function” (MERCK SHARP & DOHME CORP., priority 2013, dated 2021).
“And” between values parts separate entries of the source, which are not always exact repeats. Identical values can stand only once. Like-named read-outs stand apart in the source and are kept apart here.

Key:
clinical [1] = conditions: human, in vivo; for Tmax / clearance / Vd / half-life: both sexes; for clearance: CL; for clearance / Vd: mean (CV %); for Vd: Vss; for half-life: t1/2, mean (CV %); for AUC higher in females compared to males / CL, mean (CV %) / Vss, mean (CV %) / t1/2, mean (CV %) / tmax, median (minimum, maximum): both
Protocol: This TQT study was a single-center, prospective, randomized, double-blind, double-dummy, placebo and active controlled, 4-way crossover study that evaluated a single therapeutic 1.5 g and a single supratherapeutic 4.5 g dose of ceftolozane/tazobactam compared with placebo. Moxifloxacin 400 mg, given orally, was used as a positive control. All subjects received study drug on 4 dosing days (Day 1, Day 5, Day 9, and Day 13) in a crossover fashion with a 3-day wash-out period between doses. Healthy men and women were randomized on a 1:1:1:1 basis to 1 of 4 dosing sequences.
Electrocardiograms were recorded (triplicate measurements) over 24 hours on Day 1, Day 5, Day 9, and Day 13 using a 12-lead Holter monitor. Blood samples for determination of ceftolozane, tazobactam, and the M1 metabolite of tazobactam levels were obtained at prespecified time intervals prior to and following each electrocardiogram (ECG) reading on dosing days. Plasma levels of ceftolozane, tazobactam, and its metabolite M1 were determined by LC/MS/MS assay.

[2] = set-up: species or system human
From the text: Phoenix™ Non Linear Mixed Effects (NLME) version 1.2 (Pharsight Corporation, Certara USA, Inc., 9666 Olive Blvd., Suite 425, St. Louis, Mo. 63132 USA) with the extended least squares first order conditional estimation (FOCE-ELS) was used for population PK modeling and SAS® 9.3 (SAS Institute Inc., 100 SAS Campus Drive, Cary, N.C. 27513-2414, USA) with finite element method (FEM) was used for Monte Carlo simulation. R (2.15.0) and SAS® 9.3 were used for data management, statistical summaries and table/figures generation.
No other structural model was further tested unless necessary. Ceftolozane or tazobactam plasma concentration-time data with hemodialysis were then included and hemodialysis was tested as a covariate effect on both clearance and volume of distribution for the central compartment. The final model was selected based on the stability of the model, reliability and interpretability of the parameter estimates and the goodness-of-fit plots.
The population PK model for ceftolozane was developed via a 2-step process. First, the ceftolozane plasma concentrations without hemodialysis (first dose) were modeled and best described with a 2-compartment disposition model (FIG. 15) plus a proportional residual error model. The between-subject variability was reliably estimable on all four PK parameters CL, Vc, CL2 and V2. When the ceftolozane plasma concentrations following the second dose with hemodialysis were included, the above model, with the addition of a dichotomous covariate and a between-subject variability for the effect of hemodialysis, was the best to fit the combined data.
Similar to ceftolozane, tazobactam plasma concentrations without hemodialysis (first dose) were first modeled and well described with a 2-compartment disposition model (FIG. 15) plus a proportional residual error model. The between-subject variability was reliably estimable on all four PK parameters CL, Vc, CL2 and V2. When the tazobactam plasma concentrations following the second dose were included, the model with hemodialysis evaluated as a dichotomous covariate with a between-subject variability was the best to fit all the combined data. […] (17)
Ceftolozane/tazobactam plasma concentrations collected from 6 patients with ESRD following a single dose without hemodialysis and a second dose with hemodialysis were used to develop a population PK model (Phoenix™ Non Linear Mixed Effects [NLME]).
A 2-compartment disposition model was used to fit the ceftolozane or tazobactam plasma concentration-time data without hemodialysis and to test the between-subject variability and residual variability. Ceftolozane or tazobactam plasma concentration-time data with hemodialysis were then included and hemodialysis was tested as a covariate effect on both clearance and volume of distribution for the central compartment.

clinical [3] = conditions: human, in vivo, t1/2, geometric mean
Protocol: The extent of ceftolozane exposure increases with decreasing renal function. […] In subjects with moderate renal impairment, exposure approximately doubles relative to that in subjects with normal renal function.
For tazobactam, this estimated exposure from a dose of 125 mg in subjects with severe renal impairment not on hemodialysis is similar to that achieved with 500 mg tazobactam in subjects with normal renal function (23.8 μg·h/mL).

Structure (SMILES)	Tmax (clinical [1]) [h]	clearance (clinical [1]) [mL/min]	Vd (clinical [1]) [L]	half-life (clinical [1]) [h]	AUC higher in females compared to males (clinical [1]) [%]	CL, mean (CV %) (clinical [1])	Vss, mean (CV %) (clinical [1])	t1/2, mean (CV %) (clinical [1])	tmax, median (minimum, maximum) (clinical [1])	BSV % (RSE %) of CL ([2]; ESRD)	BSV % (RSE %) of V2 ([2]; ESRD)	BSV % (RSE %) of log-scale coefficient of hemodialysis on CL ([2]; ESRD)	Log-scale coefficient of hemodialysis on CL, mean estimate ([2]; ESRD)	Log-scale coefficient of hemodialysis on Vc, mean estimate ([2]; ESRD)	increase of CL by HD ([2]; ESRD) [fold]	increase of Vc by HD ([2]; ESRD) [fold]	V2, volume of distribution for peripheral compartment, mean estimate ([2]; human)	apparent terminal half-life ([2]; human)	apparent volume of distribution for the central compartment with hemodialysis ([2]; human)	clearance with hemodialysis ([2]; human)	further results
Cn1c(N)c(NC(=O)NCCN)c[n+]1CC1=C(C(=O)O)N2C(=O)[C@@H](NC(=O)/C(=N\OC(C)(C)C(=O)O)c3nsc(N)n3)[C@H]2SC1 [Ceftolozane, (6R,7R)-3-[(5-amino-4-{[(2-aminoethyl)carbamoyl]amino}-1-methyl-1H-pyrazol-2-ium-2-yl)methyl]-7-({(2Z)-2-(5-amino-1,2,4-thiadiazol-3-yl)-2-[(1-carboxy-1-methylethoxy)imino]acetyl}amino)-8-oxo-5-thia-1-azabicyclo[4.2.0]oct-2-ene-2-carboxylate]	0.667	92.8	13.5	2.29	22	5.50 (17) L/h	13.7 (20) L	2.72 (21) h	0.667 (0.667, 1.18) h	52.2 (29.2) %	48.4 (29.9) %	69.6 (29.8) %	4.09 and 4.1	1.54 and 1.5	60	4.7	11.8	about 40 hours	about 28 L	about 20 L/hr	BSV % (RSE %) of CL2 ([2]; ESRD): 35.9 (41.9) %; BSV % (RSE %) of log-scale coefficient of hemodialysis on Vc ([2]; ESRD): 40.0 (34.7) %; Vc, volume of distribution for central compartment, mean estimate ([2]; human): 6 FIXED L; half-life ([2]; human): about 2 hours; half-life (clinical [3]): 5.85 h
C[C@]1(Cn2ccnn2)[C@H](C(=O)O)N2C(=O)C[C@H]2S1(=O)=O [Tazobactam, tazobactam]	0.667	368	18.2	0.87	19	21.2 (19) L/h	19.3 (22) L	1.05 (17) h	0.667 (0.667, 1.17) h	142 (29.3) %	24.3 (39.8) %	29 (31.4) %	1.89 and 1.9	0.434 and 0.43	6.6	1.5	6.55	about 4 hours	about 16 L	about 20 L/hr	BSV % (RSE %) of Vc ([2]; ESRD): 398 (34.3) %; half-life ([2]; human): about 1 hours; half-life (clinical [3]): 1.78 h
